Results on three molecules are retold here after patent US8722849B2, “Polypeptides” (Novo Nordisk A/S, priority 2011, dated 2014).

For data set [1], the target named is T1, human calcitonin receptor (Homo sapiens, UniProt P30988).
T1 construct: expressed in transfected cells; host or cells: BHK570
T1 sequence (P30988 25-474): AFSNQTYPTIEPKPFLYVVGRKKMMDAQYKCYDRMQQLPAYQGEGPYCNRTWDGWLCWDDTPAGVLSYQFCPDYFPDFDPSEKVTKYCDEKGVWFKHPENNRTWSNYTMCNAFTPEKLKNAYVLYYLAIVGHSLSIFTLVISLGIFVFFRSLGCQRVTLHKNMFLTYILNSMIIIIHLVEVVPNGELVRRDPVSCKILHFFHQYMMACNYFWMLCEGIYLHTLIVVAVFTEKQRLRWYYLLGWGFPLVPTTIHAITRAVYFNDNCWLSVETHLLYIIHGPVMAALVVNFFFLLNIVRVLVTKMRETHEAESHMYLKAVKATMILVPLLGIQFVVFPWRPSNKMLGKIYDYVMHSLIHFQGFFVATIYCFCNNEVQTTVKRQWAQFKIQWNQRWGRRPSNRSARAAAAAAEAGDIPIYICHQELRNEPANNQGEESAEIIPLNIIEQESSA
The data set is described as follows: Assay (II)a functional CRE-luciferase assay, human calcitonin receptor. Format: cell-based. The conditions noted are these: Table 7; human calcitonin (CTa) receptor.

A short description of data set [2]: Assay (III) ThT fibrillation assay for physical stability. The data set is classed as physicochemical. In a few lines: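 Freshly prepared formulations, pH-adjusted, with 1 μM ThT; four or eight replicates incubated at 37 °C under 960 rpm orbital shaking. Fluorescence (ex 444/em 485 nm) read every 20 min; […]. Peptide concentration measured by RP-HPLC before and after the run.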

Data set [3] concerns the target T2, human amylin receptor (amylin 3(a) receptor: human calcitonin receptor + RAMP-3) (Homo sapiens, UniProt O60896+P30988).
T2 construct: expressed in transfected cells; host or cells: BHK570
T2 sequence (P30988 25-474): T1 sequence (P30988 25-474)
T2 sequence (O60896 24-148 partner): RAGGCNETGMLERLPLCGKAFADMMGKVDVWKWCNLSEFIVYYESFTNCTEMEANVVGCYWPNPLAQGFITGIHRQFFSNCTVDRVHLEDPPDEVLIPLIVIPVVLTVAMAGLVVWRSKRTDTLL
The data set is described as follows: Assay (II)a functional CRE-luciferase assay, human amylin receptor. Particulars: Table 2; BHK amylin 3(a)-receptor/CRE-luc cells. Format: cell-based.

Data set [4] in a line: Assay (IV) determination of solubility. The data set is classed as physicochemical. In a few lines:
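Solubility was profiled across pH 3.0–8.0 after 18 hours at room temperature: a ~500 nmol/ml aqueous polypeptide solution was diluted 1:1 into 100 mM glycylglycine or bistrispropane buffers. After centrifugation, HPLC gave the dissolved concentration.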

Setting [5] is: bistrispropane buffer, pH 6, pH 6.0, read-out: Solubility pH 6.0.
The mark [6] stands for this setting: bistrispropane buffer, pH 6.5, pH 6.5, read-out: Solubility pH 6.5.
[7] abbreviates: bistrispropane buffer, pH 7, pH 7.0, 18 hours at room temperature, Table 3, read-out: Solubility pH 7.0.
The mark [8] stands for this setting: bistrispropane buffer, pH 7, pH 7.0, Table 8, read-out: Solubility pH 7.0.
[9] abbreviates: bistrispropane buffer, pH 7, pH 7.0, Table 9, read-out: Solubility pH 7.0.
Setting [10] is: bistrispropane buffer, pH 7, pH 7.0, read-out: Solubility pH 7.0.
The mark [11] stands for this setting: bistrispropane buffer, pH 7.5, pH 7.5, Table 9, read-out: Solubility pH 7.5.
[12] abbreviates: bistrispropane buffer, pH 7.5, pH 7.5, read-out: Solubility pH 7.5.
[13] abbreviates: bistrispropane buffer, pH 8, pH 8.0, read-out: Solubility pH 8.0.
The mark [14] stands for this setting: glycylglycine buffer, pH 3, pH 3.0, read-out: Solubility pH 3.0.
The mark [15] stands for this setting: glycylglycine buffer, pH 4, pH 4.0, 18 hours at room temperature, Table 2, read-out: Solubility pH 4.0.
Setting [16] is: glycylglycine buffer, pH 4, pH 4.0, read-out: Solubility pH 4.0.
[17] abbreviates: glycylglycine buffer, pH 5, pH 5.0, read-out: Solubility pH 5.0.

Molecules are shown by their SMILES. Read-outs that look alike come from different tables or passages of the source. Starred links: 1 amine or outer side, 2 acyl side, 3 side chain; linkers in the order of their positions; H or OH if unused. Positions of bridges follow the written chain, without caps; N, C: chain ends. Residues, ends and D or L forms follow the SMILES beside them. *: point of attachment. C20 diacid = O=C(O)CCCCCCCCCCCCCCCCCCC(=O)*; γGlu = O=C(O)[C@H](CCC(=O)[*:2])N[*:1] Bounds are passed on as bounds.

As a reminder, the EC50 is the midpoint of the concentration-response curve. By solubility is commonly meant the concentration that dissolves in the medium under given conditions. As for `CC[C@H](C)[C@H](NC(=O)[C@@H]1CCCN1C(=O)CNC(=O)[C@H](Cc1ccccc1)NC(=O)[C@H](CC(N)=O)NC(=O)[C@H](CCC(N)=O)NC(=O)[C@H](CO)NC(=O)[C@H](CO)NC(=O)[C@H](Cc1c[nH]cn1)NC(=O)[C@H](Cc1c[nH]cn1)NC(=O)[C@H](CC(C)C)NC(=O)[C@H](Cc1ccccc1)NC(=O)[C@H](CCC(=O)O)NC(=O)[C@H](C)NC(=O)[C@H](CC(C)C)NC(=O)[C@H](CCCNC(=N)N)NC(=O)[C@H](CCC(N)=O)NC(=O)[C@@H](NC(=O)[C@H](C)NC(=O)[C@@H]1CSSC[C@H](NC(=O)[C@H](CCCCN)NC(=O)CC[C@H](NC(=O)CCCCCCCCCCCCCCCCCCC(=O)O)C(=O)O)C(=O)N[C@@H](CC(N)=O)C(=O)N[C@@H]([C@@H](C)O)C(=O)N[C@@H](C)C(=O)N[C@@H]([C@@H](C)O)C(=O)N1)[C@@H](C)O)C(=O)N[C@@H](CC(C)C)C(=O)N1CCC[C@H]1C(=O)N1CCC[C@H]1C(=O)N[C@H](C(=O)N[C@@H](CC(N)=O)C(=O)N[C@H](C(=O)NCC(=O)N[C@@H](CO)C(=O)N[C@@H](CC(N)=O)C(=O)N[C@H](C(=O)N1CCC[C@H]1C(N)=O)[C@@H](C)O)C(C)C)[C@@H](C)O` [Example 130, N-alpha-[(S)-4-Carboxy-4-(19-carboxynonadecanoylamino)butyryl]-[Glu14,His17,Gln21,Pro37]-pramlintide] ({C20 diacid-γGlu}-KCNTATCATQRLAEFLHHSSQNFGPILPPTNVGSNTP-NH2; disulfide 2-7 (inferred)), the results for the EC50 in data set [1] and in data set [3] were 31.5 pM and 55.5 pM, respectively. Also, the “ThT pH 4.0 lag time” value in data set [2] (Table 8), in data set [2] (Table 9) and in data set [2] (ThT fibrillation assay) was more than 45 h in each case. In data set [2] (ThT fibrillation assay), the “ThT pH 4.0 lag time (h)” value is on record as more than 45 h. Besides, the solubility at 18 h in data set [4] (setting [5]), in data set [4] (setting [6]), in data set [4] (setting [7]), in data set [4] (setting [8]), in data set [4] (setting [9]) and in data set [4] (setting [10]) was more than 200 µM in each case. Further, the solubility at 18 h in data set [4] (setting [11]), in data set [4] (setting [12]), in data set [4] (setting [13]), in data set [4] (setting [14]), in data set [4] (setting [15]) and in data set [4] (setting [16]) was more than 200 µM in each case. For the same molecule, the solubility at 18 h in data set [4] (setting [17]) was more than 200 µM.
In the case of `CC[C@H](C)[C@H](NC(=O)[C@@H]1CCCN1C(=O)CNC(=O)[C@H](Cc1ccccc1)NC(=O)[C@H](CC(N)=O)NC(=O)[C@H](CC(N)=O)NC(=O)[C@H](CO)NC(=O)[C@H](CO)NC(=O)[C@H](Cc1c[nH]cn1)NC(=O)[C@H](Cc1c[nH]cn1)NC(=O)[C@H](CC(C)C)NC(=O)[C@H](Cc1ccccc1)NC(=O)[C@H](CCC(=O)O)NC(=O)[C@H](C)NC(=O)[C@H](CC(C)C)NC(=O)[C@H](CCCNC(=N)N)NC(=O)[C@H](CCC(N)=O)NC(=O)[C@@H](NC(=O)[C@H](C)NC(=O)[C@@H]1CSSC[C@H](NC(=O)[C@H](CCCCN)NC(=O)CC[C@H](NC(=O)CCCCCCCCCCCCCCCCCCC(=O)O)C(=O)O)C(=O)N[C@@H](CC(N)=O)C(=O)N[C@@H]([C@@H](C)O)C(=O)N[C@@H](C)C(=O)N[C@@H]([C@@H](C)O)C(=O)N1)[C@@H](C)O)C(=O)N[C@@H](CC(C)C)C(=O)N1CCC[C@H]1C(=O)N1CCC[C@H]1C(=O)N[C@H](C(=O)N[C@@H](CC(N)=O)C(=O)N[C@H](C(=O)NCC(=O)N[C@@H](CO)C(=O)N[C@@H](CCC(N)=O)C(=O)N[C@H](C(=O)N1CCC[C@H]1C(N)=O)[C@@H](C)O)C(C)C)[C@@H](C)O` [Example 135, N-alpha-[(S)-4-Carboxy-4-(19-carboxynonadecanoylamino)butyryl]-[Glu14,His17,Gln35,Pro37]-pramlintide] ({C20 diacid-γGlu}-KCNTATCATQRLAEFLHHSSNNFGPILPPTNVGSQTP-NH2; disulfide 2-7 (inferred)), the concentration giving a half-maximal response (EC50) in data set [1] amounted to 97 pM; in data set [3], 103 pM. The “ThT pH 4.0 lag time” value in data set [2] (Table 8), in data set [2] (Table 9) and in data set [2] (ThT fibrillation assay) was more than 45 h each time. Also, in data set [2] (ThT fibrillation assay), the “ThT pH 4.0 lag time (h)” value was more than 45 h. Besides, the solubility at 18 h in data set [4] (setting [5]), in data set [4] (setting [6]), in data set [4] (setting [7]), in data set [4] (setting [8]), in data set [4] (setting [9]) and in data set [4] (setting [10]) was more than 200 µM throughout. In addition, the solubility at 18 h in data set [4] (setting [11]), in data set [4] (setting [12]), in data set [4] (setting [13]), in data set [4] (setting [14]), in data set [4] (setting [15]) and in data set [4] (setting [16]) was more than 200 µM in each case. Moreover, the solubility at 18 h in data set [4] (setting [17]) is more than 200 µM.
For `CC[C@H](C)[C@H](NC(=O)[C@@H]1CCCN1C(=O)CNC(=O)[C@H](Cc1ccccc1)NC(=O)[C@H](CC(N)=O)NC(=O)[C@H](CCC(N)=O)NC(=O)[C@H](CO)NC(=O)[C@H](CO)NC(=O)[C@H](Cc1c[nH]cn1)NC(=O)[C@H](Cc1c[nH]cn1)NC(=O)[C@H](CC(C)C)NC(=O)[C@H](Cc1ccccc1)NC(=O)[C@H](CCC(=O)O)NC(=O)[C@H](C)NC(=O)[C@H](CC(C)C)NC(=O)[C@H](CCCNC(=N)N)NC(=O)[C@H](CCC(N)=O)NC(=O)[C@@H](NC(=O)[C@H](C)NC(=O)[C@@H]1CSSC[C@H](NC(=O)[C@H](CCCCN)NC(=O)CC[C@H](NC(=O)CCCCCCCCCCCCCCCCCCC(=O)O)C(=O)O)C(=O)N[C@@H](CC(N)=O)C(=O)N[C@@H]([C@@H](C)O)C(=O)N[C@@H](C)C(=O)N[C@@H]([C@@H](C)O)C(=O)N1)[C@@H](C)O)C(=O)N[C@@H](CC(C)C)C(=O)N1CCC[C@H]1C(=O)N1CCC[C@H]1C(=O)N[C@H](C(=O)N[C@@H](CC(N)=O)C(=O)N[C@H](C(=O)NCC(=O)N[C@@H](CO)C(=O)N[C@@H](CCC(N)=O)C(=O)N[C@H](C(=O)N1CCC[C@H]1C(N)=O)[C@@H](C)O)C(C)C)[C@@H](C)O` [Example 136, N-alpha-[(S)-4-Carboxy-4-(19-carboxynonadecanoylamino)butyryl]-[Glu14,His17,Gln21,Gln35,Pro37]-pramlintide] ({C20 diacid-γGlu}-KCNTATCATQRLAEFLHHSSQNFGPILPPTNVGSQTP-NH2; disulfide 2-7 (inferred)), the results for the 50% effective concentration (EC50) in data set [1] and in data set [3] were 45 pM and 91 pM, respectively. Also, the “ThT pH 4.0 lag time” value in data set [2] (Table 8), in data set [2] (Table 9) and in data set [2] (ThT fibrillation assay) was more than 45 h in each case. Besides, the “ThT pH 4.0 lag time (h)” value in data set [2] (ThT fibrillation assay) was more than 45 h. Besides, the solubility at 18 h in data set [4] (setting [5]), in data set [4] (setting [6]), in data set [4] (setting [7]), in data set [4] (setting [8]), in data set [4] (setting [9]) and in data set [4] (setting [10]) was more than 200 µM each time. Also, the solubility at 18 h in data set [4] (setting [11]), in data set [4] (setting [12]), in data set [4] (setting [13]), in data set [4] (setting [14]), in data set [4] (setting [15]) and in data set [4] (setting [16]) was more than 200 µM in each case. The solubility at 18 h in data set [4] (setting [17]) was more than 200 µM.
